Reference: US20240368096A1 (Enanta Pharmaceuticals, Inc., priority 2022, published 2024)
Where two headings read alike, the source gives them in different places.

Legend:
HDV = HDV infection in primary human hepatocytes (PHHs) and RNA quantification (RT-qPCR); assay type: cell-based; settings: Hepatocyte, 192 h, HDV infection of primary human hepatocytes, viral RNA at day 8 post infection
Excerpt: Primary human hepatocytes (Thermo Fisher Scientific) were thawed in Williams E Medium with CM3000 supplement pack (Thermo Fisher Scientific) and seeded at 70,000 cells/well on collagen-coated 96-well plate. Six hours post-seeding, cell medium was changed to Williams E Medium with CM4000 cell maintenance supplement pack for further culture (Thermo Fisher Scientific). HDV virus collected from the supernatants of HuH7-END cells was purified in the presence of 6% polyethylene glycol (PEG). Viral titer was then quantified by RT-qPCR using HDV specific primers against a reference standard. On the day of infection, compounds were 4-fold serially diluted in DMSO and pre-incubated with PHHs for two hours before infecting with 100 GE/cell of HDV in 4% PEG. On day one post infection, HDV-containing media was aspirated, cells were washed once with PBS and then maintained in 2.5% DMSO containing media for the remainder of the assay. Viral RNA was isolated using RNeasy kits at day 8 post infection and reverse transcribed into cDNA using High-Capacity RNA-to-cDNA Kit. Relative HDV gene expression was quantified by RT-qPCR after normalization to expression of a housekeeping gene. Irrespective of readout, compound concentrations that reduce viral RNA by 50% relative to DMSO controls (EC50) are reported. EC50 ranges are as follows: A<0.1 μM; B 0.1-1 μM; C>1 μM.

HBV = HBV infection in HepG2-NTCP cells (HBeAg AlphaLISA in supernatants); assay type: cell-based; settings: Hepatitis B virus, 192 h
How it was run: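 Readout was day-8 supernatant HBeAg by AlphaLISA, with EC50 set against DMSO controls and binned A<0.1 μM, B 0.1-1 μM, C>1 μM. Compounds were added 2 h before HBV (2000 GE/cell, 4% PEG, 0.5% DMSO) to HepG2-NTCP A3 cells; from day 1 medium held 2.5% DMSO.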

NTCP = molecular target: T1, NTCP (Homo sapiens, UniProt Q14973); experiment: HepG2-NTCP preS1 binding competition assay (FITC-labeled myristoylated preS1 peptide); settings: HepG2-NTCP cells; competition with FITC-labeled preS1 peptide
T1 construct: expressed in transfected cells; host or cells: HepG2-NTCP (clone A3, kept under puromycin)
T1 sequence (Q14973 1-349): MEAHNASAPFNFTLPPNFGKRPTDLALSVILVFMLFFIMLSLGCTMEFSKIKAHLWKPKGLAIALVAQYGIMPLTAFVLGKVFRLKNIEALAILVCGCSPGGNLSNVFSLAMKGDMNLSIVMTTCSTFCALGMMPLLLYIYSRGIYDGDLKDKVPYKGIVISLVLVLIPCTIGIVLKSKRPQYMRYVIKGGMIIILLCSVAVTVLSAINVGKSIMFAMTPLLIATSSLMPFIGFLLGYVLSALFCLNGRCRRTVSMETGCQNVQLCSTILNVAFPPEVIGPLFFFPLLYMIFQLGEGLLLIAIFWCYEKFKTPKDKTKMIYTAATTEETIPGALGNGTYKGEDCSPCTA
Protocol: HepG2-NTCP preS1 Binding Competition Assay
Myristoylated preS1 peptide (2-48 aa) conjugated to a C-terminal FITC tag was synthesized to evaluate preS1 binding to NTCP-expressing cells. HepG2-NTCP cells seeded in 384-wells were pre-treated with compounds for 2 hours prior to the addition of FITC-labeled preS1 peptide. After co-incubation for 30 minutes, unbound FITC-preS1 peptide was washed twice with PBS, and the fluorescence of preS1-FITC bound to cell surface was detected by Envision plate reader. EC50 ranges are as follows: A<0.1 μM; B 0.1-1 μM; C>1 μM.

[1] = Donor 1, read-out: Cellular EC50 (μM) Donor 1
[2] = HBV infection of HepG2-NTCP cells, HBeAg in supernatants at day 8 post infection, read-out: Cellular EC50
[3] = Donor 2, read-out: Cellular EC50 (μM) Donor 2

SMILES	EC50 (HDV; [1])	EC50 (HBV; [2])	EC50 (HDV; [3])	EC50 (NTCP)	EC50 (HBV; read-out: Cellular EC50 (μM))
CCCCCCCOc1cc2c(cc1-c1ccc(F)c(C(=O)O)c1)S(=O)(=O)N(C)[C@H](C1CCCCC1)CN2c1ccccc1 [Example 353]	< 0.1 µM	< 0.1 µM			
Cc1cc(-c2cc3c(cc2OCc2ccsc2)N(c2ccccc2)C[C@@H](C2CCCCC2)N(C)S3(=O)=O)sc1C(=O)O [Example 514]	< 0.1 µM	< 0.1 µM	< 0.1 µM		
Cc1cc(-c2cc3c(cc2OCC(F)(F)F)N(c2ccccc2)C[C@@H](C2CCCCC2)N(C)S3(=O)=O)sc1C(=O)O [Example 512, (R)-5-(3-cyclohexyl-2-methyl-1,1-dioxido-5-phenyl-7-(2,2,2-trifluoroethoxy)-2,3,4,5-tetrahydrobenzo[f][1,2,5]thiadiazepin-8-yl)-3-methylthiophene-2-carboxylic acid]		< 0.1 µM		< 100 nM	
COCCOc1cc2c(cc1-c1ccc(F)c(C(=O)O)c1)S(=O)(=O)N(C)[C@H](C1CCCCC1)CN2c1ccccc1 [Example 388]		< 0.1 µM		< 100 nM	
CCCCCN1C[C@@H](C2CCCCC2)N(C)S(=O)(=O)c2cc(-c3ccc(F)c(C(=O)O)c3)c(Cl)cc21 [Example 323]		< 0.1 µM		< 100 nM	
CN1[C@H](C2CCCCC2)CN(c2ccccc2)c2cc(Cl)c(N3CCC(F)(C(=O)O)C3)cc2S1(=O)=O (mixture of isomers) [Example 609, 1-((R)-7-chloro-3-cyclohexyl-2-methyl-1,1-dioxido-5-phenyl-2,3,4,5-tetrahydrobenzo[f][1,2,5]thiadiazepin-8-yl)-3-fluoropyrrolidine-3-carboxylic acid]		< 0.1 µM		< 100 nM	
CC(C)CN1C[C@@H](C2CCCCC2)N(C)S(=O)(=O)c2cc(-c3ccc(F)c(C(=O)O)c3)c(Cl)cc21 [Example 325]		< 0.1 µM		< 100 nM	
CN1[C@H](C2CCCCC2)CN(c2ccccc2)c2cc(OCc3c[nH]cn3)c(-c3ccc(F)c(C(=O)O)c3)cc2S1(=O)=O [Example 391]				> 1000 nM	> 1 µM
CCOc1ccccc1N1C[C@@H](C2CCCCC2)N(C)S(=O)(=O)c2cc(-c3ccc(F)c(C(=O)O)c3)c(Cl)cc21 [Example 307]				> 1000 nM	> 1 µM
CN1[C@H](C2CCCCC2)CN(c2ccccc2)c2cc(Cl)c(N3C[C@H]4C[C@@]4(C(=O)O)C3)cc2S1(=O)=O [Example 615]		0.1 to 1 µM		< 100 nM	
CN1[C@H](C2CCCCC2)CN(c2ccccc2)c2cc(Cl)c(N3C[C@H](C(=O)O)[C@@H](c4ccccc4)C3)cc2S1(=O)=O [Example 612]		< 0.1 µM		100 to 1000 nM	
CN1[C@H](C2CCCCC2)CN(c2ccccc2)c2cc(F)c(-c3cc(F)c(C(=O)O)s3)cc2S1(=O)=O [Example 128, (R)-5-(3-cyclohexyl-7-fluoro-2-methyl-1,1-dioxido-5-phenyl-2,3,4,5-tetrahydrobenzo[f][1,2,5]thiadiazepin-8-yl)-3-fluorothiophene-2-carboxylic acid]		< 0.1 µM	< 0.1 µM		
CN1[C@H](C2CCCCC2)CN(c2ccccc2)c2cc(OC3CCC3)c(-c3ccc(F)c(C(=O)O)c3)cc2S1(=O)=O [Example 376]	< 0.1 µM	< 0.1 µM			
COCCOc1cc2c(cc1-c1cc(F)c(C(=O)O)s1)S(=O)(=O)N(C)[C@H](C1CCCCC1)CN2c1ccccc1 [Example 486]		< 0.1 µM		< 100 nM	
CN1[C@H](C2CCCCC2)CN(c2ccccc2)c2cc(OC3CC3)c(-c3ccc(F)c(C(=O)O)c3)cc2S1(=O)=O [Example 372]	< 0.1 µM	< 0.1 µM			
CC(C)COC(=O)Nc1cc(-c2cc3c(cc2Cl)N(c2ccccc2)C[C@@H](C2CCCCC2)N(C)S3(=O)=O)sc1C(=O)O [Example 241]		< 0.1 µM		< 100 nM	
CCOC(=O)Nc1cc(-c2cc3c(cc2Cl)N(c2ccccc2)C[C@@H](C2CCCCC2)N(C)S3(=O)=O)sc1C(=O)O [Example 240]		< 0.1 µM		< 100 nM	
CC(=O)NS(=O)(=O)c1ccc(-c2cc3c(cc2Cl)N(c2ccccc2)C[C@@H](C2CCCCC2)N(C)S3(=O)=O)s1 [Example 225]		0.1 to 1 µM		100 to 1000 nM	
CN1[C@H](C2CCCCC2)CN(c2ncco2)c2cc(Cl)c(-c3ccc(F)c(C(=O)O)c3)cc2S1(=O)=O [Example 318]				> 1000 nM	> 1 µM
CN1[C@H](C2CCCCC2)CN(c2ccccc2)c2cc(Cl)c(N3C[C@@H](C(=O)O)[C@H](c4ccccc4)C3)cc2S1(=O)=O [Example 613]		< 0.1 µM		100 to 1000 nM	
COC(C)(C)COC(=O)Nc1cc(-c2cc3c(cc2Cl)N(c2ccccc2)C[C@@H](C2CCCCC2)N(C)S3(=O)=O)sc1C(=O)O [Example 239, (R)-5-(7-chloro-3-cyclohexyl-2-methyl-1,1-dioxido-5-phenyl-2,3,4,5-tetrahydrobenzo[f][1,2,5]thiadiazepin-8-yl)-3-(((2-methoxy-2-methylpropoxy)carbonyl)amino)thiophene-2-carboxylic acid]		< 0.1 µM		< 100 nM	
COc1ccccc1N1C[C@@H](C2CCCCC2)N(C)S(=O)(=O)c2cc(-c3ccc(F)c(C(=O)O)c3)c(Cl)cc21 [Example 304, (R)-5-(7-chloro-3-cyclohexyl-5-(2-methoxyphenyl)-2-methyl-1,1-dioxido-2,3,4,5-tetrahydrobenzo[f][1,2,5]thiadiazepin-8-yl)-2-fluorobenzoic acid]				> 1000 nM	> 1 µM
COc1cc2c(cc1-c1ccc(F)c(C(=O)O)c1)S(=O)(=O)N(C)[C@H](C1CCCCC1)CN2c1ccccc1 [Example 348]		< 0.1 µM		< 100 nM	
CN1[C@H](C2CCCCC2)CN(c2ccccc2)c2cc(Cl)c([C@H]3C[C@H](C(=O)O)C3)cc2S1(=O)=O [Example 608, (1R,3r)-3-((R)-7-chloro-3-cyclohexyl-2-methyl-1,1-dioxido-5-phenyl-2,3,4,5-tetrahydrobenzo[f][1,2,5]thiadiazepin-8-yl)cyclobutane-1-carboxylic acid]		0.1 to 1 µM		100 to 1000 nM	
CCCCCCS(=O)(=O)Nc1ccc(-c2cc3c(cc2Cl)N(c2ccccc2)C[C@@H](C2CCCCC2)N(C)S3(=O)=O)cc1C(=O)O [Example 273]		< 0.1 µM		< 100 nM	
CCCS(=O)(=O)Nc1cc(-c2cc3c(cc2Cl)N(c2ccccc2)C[C@@H](C2CCCCC2)N(C)S3(=O)=O)sc1C(=O)O [Example 275, (R)-5-(7-chloro-3-cyclohexyl-2-methyl-1,1-dioxido-5-phenyl-2,3,4,5-tetrahydrobenzo[f][1,2,5]thiadiazepin-8-yl)-3-(propylsulfonamido)thiophene-2-carboxylic acid]		< 0.1 µM		< 100 nM	
CN1[C@H](C2CCCCC2)CN(c2ccccc2)c2cc(OCc3ccsc3)c(-c3ccc(F)c(C(=O)O)c3)cc2S1(=O)=O [Example 336]	< 0.1 µM	< 0.1 µM			
CN1[C@H](C2CCCCC2)CN(c2ccccc2)c2cc(Cl)c(N3C[C@H](C(=O)O)[C@@H](C(F)(F)F)C3)cc2S1(=O)=O [Example 614]		< 0.1 µM		< 100 nM	
CN1[C@H](C2CCCCC2)CN(CC2COC2)c2cc(Cl)c(-c3ccc(F)c(C(=O)O)c3)cc2S1(=O)=O [Example 320]				> 1000 nM	> 1 µM
